PubChem BioAssay (NCI)
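Compound exposure: 48 hours, 5 concentrations, 96-well plates. Here, GI50 denotes the concentration required for 50% inhibition of growth. Definition used: TGI = concentration required for complete inhibition of growth.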

Experiments:
Assay in all cases: growth of human tumour cells (NCI), 48 h
[1] = tested on: HCT-15 colon
[2] = tested on: SK-MEL-28 melanoma
[3] = tested on: SF-268 CNS
[4] = tested on: NCI-H23 lung
[5] = tested on: SW-620 colon
[6] = tested on: SK-OV-3 ovarian
[7] = tested on: NCI-H226 lung
[8] = tested on: HL-60(TB) leukemia
[9] = tested on: KM12 colon
[10] = tested on: SN12C renal
[11] = tested on: DU-145 prostate
[12] = tested on: MALME-3M melanoma
[13] = tested on: MDA-MB-468 breast
[14] = tested on: IGROV1 ovarian
[15] = tested on: BT-549 breast
[16] = tested on: MDA-MB-231 breast
[17] = tested on: M14 melanoma
[18] = tested on: SR leukemia
[19] = tested on: PC-3 prostate
[20] = tested on: HS 578T breast
[21] = tested on: A498 renal
[22] = tested on: CCRF-CEM leukemia
[23] = tested on: A549 NSCLC
[24] = tested on: K-562 leukemia
[25] = tested on: UACC-257 melanoma
[26] = tested on: HOP-62 NSCLC
[27] = tested on: CAKI-1 renal
[28] = tested on: ACHN renal
[29] = tested on: NCI-H522 lung
[30] = tested on: UO-31 renal
[31] = tested on: NCI/ADR-RES ovarian
[32] = tested on: UACC-62 melanoma
[33] = tested on: MDA-MB-435
[34] = tested on: MCF7 breast
[35] = tested on: SNB-75 CNS
[36] = tested on: TK-10 renal
[37] = tested on: OVCAR-5 ovarian
[38] = tested on: HCT-116 colon
[39] = tested on: HCC-2998 colon
[40] = tested on: OVCAR-4 ovarian
[41] = tested on: HOP-92 NSCLC
[42] = tested on: SNB-19 CNS
[43] = tested on: OVCAR-3 ovarian
[44] = tested on: NCI-H460 lung
[45] = tested on: SK-MEL-2 melanoma
[46] = tested on: SF-295 CNS
[47] = tested on: OVCAR-8 ovarian
[48] = tested on: COLO 205 colon
[49] = tested on: MOLT-4 leukemia
[50] = tested on: U251 CNS
[51] = tested on: 786-0 renal
[52] = tested on: RPMI-8226 leukemia
[53] = tested on: EKVX NSCLC
[54] = tested on: RXF 393 renal
[55] = tested on: SK-MEL-5 melanoma
[56] = tested on: T-47D breast
[57] = tested on: SF-539 CNS

O=C1CCC(N2C(=O)c3cccc(NCCCCCC(=O)N4CCN(c5ccc6nc7c(nc6c5C(F)(F)F)C(=O)c5ncccc5C7=O)CC4)c3C2=O)C(=O)N1 (centres undefined)
GI50 [1]: 0.0819 µM | TGI [1]: 0.813 µM | GI50 [2]: 0.386 µM | TGI [2]: 1.29 µM | GI50 [3]: 1.36 µM | TGI [3]: 5.05 µM | GI50 [4]: 0.138 µM | TGI [4]: 0.315 µM | GI50 [5]: 0.368 µM | TGI [5]: 1.81 µM | GI50 [6]: 0.768 µM | TGI [6]: 2.2 µM | GI50 [7]: 0.16 µM | TGI [7]: 1.1 µM | GI50 [8]: 0.919 µM | TGI [8]: > 18.8 µM | GI50 [9]: 1.43 µM | TGI [9]: 3.59 µM | GI50 [10]: 0.192 µM | TGI [10]: 0.738 µM | GI50 [11]: 0.163 µM | TGI [11]: 0.398 µM | GI50 [12]: 0.0762 µM | TGI [12]: 0.541 µM | GI50 [13]: 1.18 µM | TGI [13]: 2.68 µM | GI50 [14]: 0.827 µM | TGI [14]: 1.83 µM | GI50 [15]: 0.244 µM | TGI [15]: 1.46 µM | GI50 [16]: 0.0234 µM | TGI [16]: 2.5 µM | GI50 [17]: 0.13 µM | TGI [17]: 0.292 µM | GI50 [18]: 0.227 µM | TGI [18]: > 70.5 µM | GI50 [19]: 0.376 µM | TGI [19]: > 19 µM | GI50 [20]: 0.946 µM | TGI [20]: 3.92 µM | GI50 [21]: 1.2 µM | TGI [21]: 2.29 µM | GI50 [22]: 1.97 µM | TGI [22]: > 70.5 µM | GI50 [23]: 0.193 µM | TGI [23]: 0.712 µM | GI50 [24]: 1.01 µM | TGI [24]: > 70.5 µM | GI50 [25]: 1.06 µM | TGI [25]: 2.17 µM | GI50 [26]: 0.321 µM | TGI [26]: 1.4 µM | GI50 [27]: 0.889 µM | TGI [27]: 2.2 µM | GI50 [28]: 1.09 µM | TGI [28]: 2.53 µM | GI50 [29]: 1.02 µM | TGI [29]: 2.2 µM | GI50 [30]: 0.892 µM | TGI [30]: 1.81 µM | GI50 [31]: 2.07 µM | TGI [31]: 20.8 µM | GI50 [32]: 0.529 µM | TGI [32]: 1.54 µM | GI50 [33]: 0.555 µM | TGI [33]: 1.54 µM | GI50 [34]: 0.197 µM | TGI [34]: 0.705 µM | GI50 [35]: 0.743 µM | TGI [35]: 1.59 µM | GI50 [36]: 1.92 µM | TGI [36]: 5.67 µM | GI50 [37]: 1.01 µM | TGI [37]: 2.17 µM | GI50 [38]: 1.78 µM | TGI [38]: 4.62 µM | GI50 [39]: 0.275 µM | TGI [39]: 1.04 µM | GI50 [40]: 1.49 µM | TGI [40]: 4.83 µM | GI50 [41]: 1.2 µM | TGI [41]: 5.81 µM | GI50 [42]: 0.149 µM | TGI [42]: 0.393 µM | GI50 [43]: 1.19 µM | TGI [43]: 3.21 µM | GI50 [44]: 0.141 µM | TGI [44]: 0.287 µM | GI50 [45]: 1.03 µM | TGI [45]: 2.16 µM | GI50 [46]: 0.15 µM | TGI [46]: 0.384 µM | GI50 [47]: 1.3 µM | TGI [47]: 3.67 µM | GI50 [48]: 0.175 µM | TGI [48]: 0.475 µM | GI50 [49]: 1.5 µM | TGI [49]: > 17.8 µM | GI50 [50]: 0.177 µM | TGI [50]: 0.577 µM | GI50 [51]: 1.59 µM | TGI [51]: 4.58 µM | GI50 [52]: 0.741 µM | TGI [52]: 4.54 µM | GI50 [53]: 1.3 µM | TGI [53]: 3.92 µM | GI50 [54]: 0.981 µM | TGI [54]: 2.06 µM | GI50 [55]: 0.296 µM | TGI [55]: 1.04 µM | GI50 [56]: 1.56 µM | TGI [56]: 5.29 µM | GI50 [57]: 1 µM | TGI [57]: 1.95 µM
